Measured values published in ChEMBL document CHEMBL4251622, “Design, synthesis, and biological evaluation of polo-like kinase 1/eukaryotic elongation factor 2 kinase (PLK1/EEF2K) dual inhibitors for regulating breast cancer cells apoptosis and autophagy” (Eur J Med Chem, 2018).
Active and inactive are the calls of the source. The calls are words filed in the database; no cut-off is given here.

Tests used:
BT-483 [1] = test: Induction of apoptosis in human BT-483 cells assessed as necrotic cells at 10 uM by Annexin V-FITC/propidium iodide staining based flow cytometry (reference value: 0.18%); type: functional
ZR-75-1 = test: Cytotoxicity against human ZR-75-1 cells after 24 hrs by MTT assay; type: functional, cell-based
MDA-MB-231 = test: Cytotoxicity against human MDA-MB-231 cells after 24 hrs by MTT assay; type: functional, cell-based
BT-483 [2] = test: Cell cycle arrest in human BT-483 cells assessed as accumulation at G2/M phase at 5 to 10 uM after 24 to 72 hrs; type: functional, cell-based
BT-483 [3] = test: Induction of autophagy in human BT-483 cells assessed as degradation of SQSTM1 protein at 5 to 10 uM by Western blot analysis; type: functional, cell-based
BT-483 [4] = test: Downregulation of Bcl2 protein expression in human BT-483 cells at 5 to 10 uM by Western blot analysis; type: functional, cell-based
BT-483 [5] = test: Upregulation of Bax protein expression in human BT-483 cells at 5 to 10 uM by Western blot analysis; type: functional, cell-based
BT-483 [6] = test: Effect on caspase-8 protein expression in human BT-483 cells at 5 to 10 uM by Western blot analysis; type: functional, cell-based
[7] = target: Tyrosine-protein kinase ABL1 (Homo sapiens) (UniProt P00519); test: Inhibition of wild-type human phosphorylated ABL1 (S229 to K512 residues) expressed in mammalian expression system assessed as residual activity at 1 uM by Kinomescan method relative to control
[8] = target: Activin receptor type-1B (Homo sapiens) (UniProt P36896); test: Inhibition of wild-type human ACVR1B (S187 to I505 residues) expressed in bacterial expression system assessed as residual activity at 1 uM by Kinomescan method relative to control
[9] = target: Atypical kinase COQ8A, mitochondrial (Homo sapiens) (UniProt Q8NI60); test: Inhibition of wild-type human […] ADCK3 (M280 to Q647 residues) expressed in bacterial expression system assessed as residual activity at 1 uM by Kinomescan method relative to control
Atypical kinase COQ8A, mitochondrial (Homo sapiens), sequence (Q8NI60 163-647 limits assumed): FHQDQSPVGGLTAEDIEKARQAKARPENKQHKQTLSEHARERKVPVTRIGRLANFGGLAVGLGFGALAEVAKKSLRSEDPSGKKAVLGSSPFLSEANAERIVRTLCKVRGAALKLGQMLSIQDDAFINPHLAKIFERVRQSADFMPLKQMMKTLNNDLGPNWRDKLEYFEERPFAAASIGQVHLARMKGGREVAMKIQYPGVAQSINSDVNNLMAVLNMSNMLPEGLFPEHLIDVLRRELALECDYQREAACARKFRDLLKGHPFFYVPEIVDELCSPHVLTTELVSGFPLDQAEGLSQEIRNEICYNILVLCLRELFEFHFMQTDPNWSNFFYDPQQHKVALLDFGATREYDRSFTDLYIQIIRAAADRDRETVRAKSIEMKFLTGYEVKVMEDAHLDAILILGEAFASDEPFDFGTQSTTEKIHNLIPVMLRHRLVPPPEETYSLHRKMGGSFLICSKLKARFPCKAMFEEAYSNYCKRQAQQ

[10] = target: Cyclin-dependent kinase 9 (Homo sapiens) (UniProt P50750); test: Inhibition of wild-type human full length CDK9 (M1 to F372 residues) expressed in bacterial expression system assessed as residual activity at 1 uM by Kinomescan method relative to control
[11] = target: Serine/threonine-protein kinase Chk1 (Homo sapiens) (UniProt O14757); test: Inhibition of wild-type human partial length CHEK1 (M1 to G289 residues) expressed in bacterial expression system assessed as residual activity at 1 uM by Kinomescan method relative to control
[12] = target: Ephrin type-A receptor 2 (Homo sapiens) (UniProt P29317); test: Inhibition of wild-type human partial length EPHA2 (T593 to V891 residues) expressed in bacterial expression system assessed as residual activity at 1 uM by Kinomescan method relative to control
[13] = target: Receptor tyrosine-protein kinase erbB-2 (Homo sapiens) (UniProt P04626); test: Inhibition of wild-type human partial length ERBB2 (K646 to V1225 residues) expressed in mammalian expression system assessed as residual activity at 1 uM by Kinomescan method relative to control
Receptor tyrosine-protein kinase erbB-2 (Homo sapiens), sequence (P04626 whole entry, the tested form may be a part): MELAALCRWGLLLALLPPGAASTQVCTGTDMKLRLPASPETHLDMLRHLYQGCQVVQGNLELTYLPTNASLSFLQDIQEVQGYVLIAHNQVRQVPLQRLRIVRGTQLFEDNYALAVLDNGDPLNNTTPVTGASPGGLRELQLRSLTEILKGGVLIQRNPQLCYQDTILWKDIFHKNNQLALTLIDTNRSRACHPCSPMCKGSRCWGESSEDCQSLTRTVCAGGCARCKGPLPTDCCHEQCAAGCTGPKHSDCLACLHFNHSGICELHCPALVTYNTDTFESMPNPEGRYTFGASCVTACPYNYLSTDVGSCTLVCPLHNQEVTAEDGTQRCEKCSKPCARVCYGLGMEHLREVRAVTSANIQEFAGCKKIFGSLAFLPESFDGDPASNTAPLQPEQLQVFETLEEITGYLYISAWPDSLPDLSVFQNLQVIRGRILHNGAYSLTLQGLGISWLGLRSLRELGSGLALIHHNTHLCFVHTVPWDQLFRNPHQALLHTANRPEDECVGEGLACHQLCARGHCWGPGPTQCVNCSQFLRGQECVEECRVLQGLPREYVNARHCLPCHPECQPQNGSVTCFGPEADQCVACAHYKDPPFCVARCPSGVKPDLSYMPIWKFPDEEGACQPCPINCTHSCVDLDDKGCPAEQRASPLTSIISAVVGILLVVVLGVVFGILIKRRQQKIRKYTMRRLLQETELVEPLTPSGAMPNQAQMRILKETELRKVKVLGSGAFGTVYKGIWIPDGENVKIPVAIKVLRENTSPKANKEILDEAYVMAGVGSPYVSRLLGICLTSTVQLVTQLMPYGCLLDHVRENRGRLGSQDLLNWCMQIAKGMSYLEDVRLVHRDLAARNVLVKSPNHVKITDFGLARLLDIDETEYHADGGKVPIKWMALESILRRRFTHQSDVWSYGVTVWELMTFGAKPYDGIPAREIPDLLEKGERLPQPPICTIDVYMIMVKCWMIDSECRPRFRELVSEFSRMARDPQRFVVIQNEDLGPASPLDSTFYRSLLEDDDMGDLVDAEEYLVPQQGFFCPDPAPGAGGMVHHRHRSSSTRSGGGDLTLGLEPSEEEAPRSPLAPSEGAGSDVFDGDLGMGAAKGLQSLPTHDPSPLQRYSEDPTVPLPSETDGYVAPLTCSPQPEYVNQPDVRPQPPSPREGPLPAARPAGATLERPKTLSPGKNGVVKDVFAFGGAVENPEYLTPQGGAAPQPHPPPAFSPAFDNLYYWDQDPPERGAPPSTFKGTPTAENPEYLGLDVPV

[14] = target: Insulin receptor (Homo sapiens) (UniProt P06213); test: Inhibition of wild-type human partial length INSR (P997 to E1318 residues) expressed in mammalian expression system assessed as residual activity at 1 uM by Kinomescan method relative to control
[15] = target: Mitogen-activated protein kinase 8 (Homo sapiens) (UniProt P45983); test: Inhibition of wild-type human full length JNK1 (M1 to Q384 residues) expressed in mammalian expression system assessed as residual activity at 1 uM by Kinomescan method relative to control
Mitogen-activated protein kinase 8 (Homo sapiens), sequence (P45983 whole entry, the tested form may be a part): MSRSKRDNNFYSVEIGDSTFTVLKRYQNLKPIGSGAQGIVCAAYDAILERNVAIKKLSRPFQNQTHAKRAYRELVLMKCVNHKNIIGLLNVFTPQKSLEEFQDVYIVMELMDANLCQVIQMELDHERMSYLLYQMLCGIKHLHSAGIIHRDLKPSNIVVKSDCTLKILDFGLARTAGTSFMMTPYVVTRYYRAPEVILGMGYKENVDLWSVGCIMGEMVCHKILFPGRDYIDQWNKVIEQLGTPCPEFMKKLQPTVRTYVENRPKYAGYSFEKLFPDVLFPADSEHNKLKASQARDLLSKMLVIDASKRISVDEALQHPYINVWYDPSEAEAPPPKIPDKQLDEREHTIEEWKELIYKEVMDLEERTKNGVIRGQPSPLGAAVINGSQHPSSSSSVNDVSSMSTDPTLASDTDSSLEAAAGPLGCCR

[16] = target: Mitogen-activated protein kinase 10 (Homo sapiens) (UniProt P53779); test: Inhibition of wild-type human partial length JNK3 (V28 to Q422 residues) expressed in mammalian expression system assessed as residual activity at 1 uM by Kinomescan method relative to control
[17] = target: Mitogen-activated protein kinase 14 (Homo sapiens) (UniProt Q16539); test: Inhibition of wild-type human full length p38-alpha (M1 to S360 residues) expressed in bacterial expression system assessed as residual activity at 1 uM by Kinomescan method relative to control
Mitogen-activated protein kinase 14 (Homo sapiens), sequence (Q16539 whole entry, the tested form may be a part): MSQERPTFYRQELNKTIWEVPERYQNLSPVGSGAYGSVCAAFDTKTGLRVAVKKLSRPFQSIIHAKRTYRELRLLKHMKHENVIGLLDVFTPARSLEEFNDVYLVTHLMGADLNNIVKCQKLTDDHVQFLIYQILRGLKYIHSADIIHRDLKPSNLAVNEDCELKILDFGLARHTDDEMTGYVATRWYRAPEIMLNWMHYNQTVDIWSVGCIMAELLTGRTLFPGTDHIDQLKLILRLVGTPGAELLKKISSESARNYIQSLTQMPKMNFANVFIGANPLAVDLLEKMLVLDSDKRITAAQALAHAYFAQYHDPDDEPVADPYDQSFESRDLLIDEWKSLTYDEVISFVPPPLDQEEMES

[18] = target: Serine/threonine-protein kinase PAK 1 (Homo sapiens) (UniProt Q13153); test: Inhibition of wild-type human partial length PAK1 (S149 to H545 residues) expressed in bacterial expression system assessed as residual activity at 1 uM by Kinomescan method relative to control
Serine/threonine-protein kinase PAK 1 (Homo sapiens), sequence (Q13153 whole entry, the tested form may be a part): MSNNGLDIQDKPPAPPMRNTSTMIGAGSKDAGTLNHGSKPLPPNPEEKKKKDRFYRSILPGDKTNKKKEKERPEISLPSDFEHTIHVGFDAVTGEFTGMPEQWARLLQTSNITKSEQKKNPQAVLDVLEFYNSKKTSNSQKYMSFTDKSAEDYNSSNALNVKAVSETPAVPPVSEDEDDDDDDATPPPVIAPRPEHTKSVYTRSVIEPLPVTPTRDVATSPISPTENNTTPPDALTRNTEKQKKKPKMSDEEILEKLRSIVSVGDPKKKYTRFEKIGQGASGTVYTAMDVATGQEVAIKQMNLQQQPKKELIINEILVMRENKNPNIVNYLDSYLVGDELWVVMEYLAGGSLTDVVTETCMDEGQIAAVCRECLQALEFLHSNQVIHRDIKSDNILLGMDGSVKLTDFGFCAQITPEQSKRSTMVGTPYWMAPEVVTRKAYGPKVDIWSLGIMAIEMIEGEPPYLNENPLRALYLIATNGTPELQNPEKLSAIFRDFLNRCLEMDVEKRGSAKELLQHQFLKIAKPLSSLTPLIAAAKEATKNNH

[19] = target: 3-phosphoinositide-dependent protein kinase 1 (Homo sapiens) (UniProt O15530); test: Inhibition of wild-type human full length PDPK1 (M1 to Q556 residues) expressed in bacterial expression system assessed as residual activity at 1 uM by Kinomescan method relative to control
[20] = target: Phosphatidylinositol 4,5-bisphosphate 3-kinase catalytic subunit alpha isoform (Homo sapiens) (UniProt P42336); test: Inhibition of wild-type human partial length PIK3CA (R108 to N1068 residues) expressed in mammalian expression system assessed as residual activity at 1 uM by Kinomescan method relative to control
[21] = target: Phosphatidylinositol 4,5-bisphosphate 3-kinase catalytic subunit gamma isoform (Homo sapiens) (UniProt P48736); test: Inhibition of wild-type human partial length PIK3CG (S144 to A1102 residues) expressed in mammalian expression system assessed as residual activity at 1 uM by Kinomescan method relative to control
[22] = target: Serine/threonine-protein kinase PLK1 (Homo sapiens, UniProt P53350); test: Inhibition of wild-type human partial length PLK1 (A33 to F325 residues) expressed in mammalian expression system assessed as residual activity at 1 uM by Kinomescan method relative to control
Serine/threonine-protein kinase PLK1, sequence (P53350 whole entry, the tested form may be a part): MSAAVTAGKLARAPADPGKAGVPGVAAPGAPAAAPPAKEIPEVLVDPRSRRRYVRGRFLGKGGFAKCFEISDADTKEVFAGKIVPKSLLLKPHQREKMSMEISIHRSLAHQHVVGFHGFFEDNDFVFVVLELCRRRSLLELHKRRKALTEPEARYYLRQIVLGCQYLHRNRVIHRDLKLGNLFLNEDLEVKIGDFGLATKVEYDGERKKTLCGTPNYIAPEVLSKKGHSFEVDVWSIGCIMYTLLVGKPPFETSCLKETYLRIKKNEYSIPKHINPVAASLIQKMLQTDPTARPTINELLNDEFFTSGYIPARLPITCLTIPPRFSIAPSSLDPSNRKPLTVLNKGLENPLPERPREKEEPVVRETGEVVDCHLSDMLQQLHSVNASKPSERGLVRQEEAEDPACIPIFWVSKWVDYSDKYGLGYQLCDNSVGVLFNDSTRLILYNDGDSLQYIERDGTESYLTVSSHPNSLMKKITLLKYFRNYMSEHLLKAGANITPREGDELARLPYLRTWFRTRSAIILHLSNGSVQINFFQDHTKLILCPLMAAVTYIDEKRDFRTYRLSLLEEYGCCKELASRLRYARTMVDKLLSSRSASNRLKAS

[23] = target: Ribosomal protein S6 kinase alpha-1 (Homo sapiens) (UniProt Q15418); test: Inhibition of wild-type human partial length N-terminal RSK1 Kinase domain 1 (M1 to E388 residues) expressed in bacterial expression system assessed as residual activity at 1 uM by Kinomescan method relative to control
[24] = target: NUAK family SNF1-like kinase 2 (Homo sapiens) (UniProt Q9H093); test: Inhibition of wild-type human partial length SNARK (P22 to A333 residues) expressed in mammalian expression system assessed as residual activity at 1 uM by Kinomescan method relative to control
NUAK family SNF1-like kinase 2 (Homo sapiens), sequence (Q9H093 whole entry, the tested form may be a part): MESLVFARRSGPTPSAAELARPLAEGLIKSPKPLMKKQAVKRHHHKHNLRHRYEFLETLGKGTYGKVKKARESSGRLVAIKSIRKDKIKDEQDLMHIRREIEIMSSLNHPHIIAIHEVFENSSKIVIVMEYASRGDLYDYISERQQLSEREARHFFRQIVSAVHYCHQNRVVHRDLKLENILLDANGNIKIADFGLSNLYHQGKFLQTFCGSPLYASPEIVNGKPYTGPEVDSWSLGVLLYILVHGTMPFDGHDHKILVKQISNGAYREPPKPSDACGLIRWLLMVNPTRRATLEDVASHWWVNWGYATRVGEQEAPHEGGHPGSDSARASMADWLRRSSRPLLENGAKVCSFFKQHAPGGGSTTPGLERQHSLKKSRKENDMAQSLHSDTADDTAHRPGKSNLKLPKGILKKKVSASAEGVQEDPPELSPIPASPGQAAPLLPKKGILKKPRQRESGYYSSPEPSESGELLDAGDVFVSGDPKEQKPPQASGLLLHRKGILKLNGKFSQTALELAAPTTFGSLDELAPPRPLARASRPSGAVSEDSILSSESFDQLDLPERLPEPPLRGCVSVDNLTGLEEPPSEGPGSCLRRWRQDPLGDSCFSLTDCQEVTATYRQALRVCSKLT

[25] = target: Angiopoietin-1 receptor (Homo sapiens) (UniProt Q02763); test: Inhibition of wild-type human partial length TIE2 (N804 to T1112 residues) expressed in bacterial expression system assessed as residual activity at 1 uM by Kinomescan method relative to control
[26] = target: High affinity nerve growth factor receptor (Homo sapiens) (UniProt P04629); test: Inhibition of wild-type human partial length TRKA (G475 to G790 residues) expressed in mammalian expression system assessed as residual activity at 1 uM by Kinomescan method relative to control
[27] = target: Mitogen-activated protein kinase kinase kinase 7 (Homo sapiens) (UniProt O43318); test: Inhibition of wild-type human partial length TAK1 (M1 to Q303 residues) expressed in mammalian expression system assessed as residual activity at 1 uM by Kinomescan method relative to control
Mitogen-activated protein kinase kinase kinase 7 (Homo sapiens), sequence (O43318 whole entry, the tested form may be a part): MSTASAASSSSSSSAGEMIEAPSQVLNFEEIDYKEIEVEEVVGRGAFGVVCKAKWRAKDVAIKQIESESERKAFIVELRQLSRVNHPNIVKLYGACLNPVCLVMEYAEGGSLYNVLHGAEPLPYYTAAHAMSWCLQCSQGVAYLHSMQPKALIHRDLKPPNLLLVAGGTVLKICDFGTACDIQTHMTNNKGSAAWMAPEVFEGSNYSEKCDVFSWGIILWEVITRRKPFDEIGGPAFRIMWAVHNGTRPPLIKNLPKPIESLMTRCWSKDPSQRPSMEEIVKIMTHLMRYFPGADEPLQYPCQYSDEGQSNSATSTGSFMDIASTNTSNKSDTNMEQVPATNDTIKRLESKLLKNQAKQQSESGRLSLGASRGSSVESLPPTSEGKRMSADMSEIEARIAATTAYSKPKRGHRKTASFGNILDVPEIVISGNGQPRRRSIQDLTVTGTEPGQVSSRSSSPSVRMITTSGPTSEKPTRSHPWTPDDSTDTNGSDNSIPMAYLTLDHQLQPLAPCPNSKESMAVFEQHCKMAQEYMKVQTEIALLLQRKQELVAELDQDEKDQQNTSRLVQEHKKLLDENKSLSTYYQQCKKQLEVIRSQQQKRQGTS

CCNc1cc(-c2ccc(NC(=O)Nc3cccc(Cl)c3)cc2C(F)(F)F)ccn1
Activity (BT-483 [1]): 0.48%
Activity (ZR-75-1): Active
Activity (MDA-MB-231): Active
Activity (BT-483 [2]): Active
Activity (BT-483 [3]): Active
Activity (BT-483 [4]): Active
Activity (BT-483 [5]): Active
Activity (BT-483 [6]): inactive
Activity [7]: 83%
Activity [8]: 85%
Activity [9]: 94%
Activity [10]: 91%
Activity [11]: 81%
Activity [12]: 95%
Activity [13]: 98%
Activity [14]: 87%
Activity [15]: 75%
Activity [16]: 64%
Activity [17]: 84%
Activity [18]: 70%
Activity [19]: 63%
Activity [20]: 69%
Activity [21]: 74%
Activity [22]: 7%
Activity [23]: 64%
Activity [24]: 69%
Activity [25]: 94%
Activity [26]: 84%
Activity [27]: 76%
